Test results from patent US10975056B2 (GlaxoSmithKline Intellectual Property Development Limited, priority 2016, dated 2021).
pIC50: −log10 of the molar value. Read-outs that look alike come from different tables or passages of the source.

Tests used:
DNMT1 = DNMT1 (Homo sapiens, UniProt P26358); test: DNMT1 biochemical activity, breaklight assay and/or SPA assay
human DNMT3a/3l = human DNMT3a/3l (Homo sapiens (Human), UniProt Q9Y6K1); test: DNMT3a/3l breaklight assay; assay type: biochemical
Experimental: DNMT3a/3l Breakliqht Assay
DNMT3a/3l breaklight in vitro assays were conducted in a total volume of 50 μl in a standard 384 well format, using black non-binding surface microplates (Corning #3575). […] Negative control wells used 5 μl of DNMT3a/3l and 5 μl of oligonucleotide but also included 200 μM SAH. All reagents were made up in 1× assay buffer (20 mM Tris pH 7.4, 100 mM NaCl, 1.5 mM EDTA, 0.1 mM MgCl2, 1 mM CHAPS and 1 mM DTT). The reaction was incubated at 37° C. for 90 min and then stopped with the addition of 40 μl detection reagent. Detection reagent, made up in 1× Gla assay buffer (20 mM Tris pH 8.0, 80 mM NaCl, 0.75 mM MgCl2, 0.01% Triton X100 and 1 mM DTT) has a final concentration of 200 μM SAH (Sigma #A9384) and 0.0008 units/μl Gla1 restriction endonuclease (Sibenzyme #E494). Following addition of the detection reagent the plate was incubated in the dark at room temperature for 5 hr. Fluorescence intensity was then measured on the PHERAstar FS (BMG Labtech) at Ex 485 nm and Em 520 nm, with a gain of 400 and an integration time of 100 ms.

DNMT3B = DNMT3B (Homo sapiens (Human), UniProt Q9UBC3); test: DNMT3B breaklight assay; assay type: biochemical
[1] = tested on: erythroid progenitor cells (EPCs); test: Fetal hemoglobin (HbF) ELISA in day 7 erythroid progenitor cells; assay type: cell-based, human; conditions: Homo sapiens, Erythroid progenitor cell, HbF ELISA, day 7 EPCs, 5 days; read-out: EPC ELISA (pEC50 category) (converted);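 also: for fetal hemoglobin induction normalized to vehicle-treated cells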
Summary of the method: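 Day 7 EPCs from human bone marrow CD34+ cells were plated at 1,000 cells/well in media with 3 U/mL rhEPO. They were exposed to a 22-point dilution ([…]) for 5 days at 37 °C. Lysate HbF was measured by sandwich ELISA (OD450) and normalized to DMSO control wells.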

[2] = binned activity in either the breaklight or the SPA assay, read-out: DNMT1 BioChemical (pIC50 category) (converted)
[3] = read-out: DNMT3A Breaklight IC50
[4] = read-out: DNMT3B Breaklight IC50
[5] = binned activity in either the breaklight or the SPA assay
[6] = repeated experimental runs, read-out: average IC50, DNMT3A breaklight assay
[7] = repeated experimental runs, read-out: average IC50, DNMT3B breaklight assay
[8] = breaklight assay and/or SPA assay, repeated experimental runs, read-out: average pIC50 against DNMT1 (converted)

Sequence of DNMT1 (P26358 whole entry, looked up): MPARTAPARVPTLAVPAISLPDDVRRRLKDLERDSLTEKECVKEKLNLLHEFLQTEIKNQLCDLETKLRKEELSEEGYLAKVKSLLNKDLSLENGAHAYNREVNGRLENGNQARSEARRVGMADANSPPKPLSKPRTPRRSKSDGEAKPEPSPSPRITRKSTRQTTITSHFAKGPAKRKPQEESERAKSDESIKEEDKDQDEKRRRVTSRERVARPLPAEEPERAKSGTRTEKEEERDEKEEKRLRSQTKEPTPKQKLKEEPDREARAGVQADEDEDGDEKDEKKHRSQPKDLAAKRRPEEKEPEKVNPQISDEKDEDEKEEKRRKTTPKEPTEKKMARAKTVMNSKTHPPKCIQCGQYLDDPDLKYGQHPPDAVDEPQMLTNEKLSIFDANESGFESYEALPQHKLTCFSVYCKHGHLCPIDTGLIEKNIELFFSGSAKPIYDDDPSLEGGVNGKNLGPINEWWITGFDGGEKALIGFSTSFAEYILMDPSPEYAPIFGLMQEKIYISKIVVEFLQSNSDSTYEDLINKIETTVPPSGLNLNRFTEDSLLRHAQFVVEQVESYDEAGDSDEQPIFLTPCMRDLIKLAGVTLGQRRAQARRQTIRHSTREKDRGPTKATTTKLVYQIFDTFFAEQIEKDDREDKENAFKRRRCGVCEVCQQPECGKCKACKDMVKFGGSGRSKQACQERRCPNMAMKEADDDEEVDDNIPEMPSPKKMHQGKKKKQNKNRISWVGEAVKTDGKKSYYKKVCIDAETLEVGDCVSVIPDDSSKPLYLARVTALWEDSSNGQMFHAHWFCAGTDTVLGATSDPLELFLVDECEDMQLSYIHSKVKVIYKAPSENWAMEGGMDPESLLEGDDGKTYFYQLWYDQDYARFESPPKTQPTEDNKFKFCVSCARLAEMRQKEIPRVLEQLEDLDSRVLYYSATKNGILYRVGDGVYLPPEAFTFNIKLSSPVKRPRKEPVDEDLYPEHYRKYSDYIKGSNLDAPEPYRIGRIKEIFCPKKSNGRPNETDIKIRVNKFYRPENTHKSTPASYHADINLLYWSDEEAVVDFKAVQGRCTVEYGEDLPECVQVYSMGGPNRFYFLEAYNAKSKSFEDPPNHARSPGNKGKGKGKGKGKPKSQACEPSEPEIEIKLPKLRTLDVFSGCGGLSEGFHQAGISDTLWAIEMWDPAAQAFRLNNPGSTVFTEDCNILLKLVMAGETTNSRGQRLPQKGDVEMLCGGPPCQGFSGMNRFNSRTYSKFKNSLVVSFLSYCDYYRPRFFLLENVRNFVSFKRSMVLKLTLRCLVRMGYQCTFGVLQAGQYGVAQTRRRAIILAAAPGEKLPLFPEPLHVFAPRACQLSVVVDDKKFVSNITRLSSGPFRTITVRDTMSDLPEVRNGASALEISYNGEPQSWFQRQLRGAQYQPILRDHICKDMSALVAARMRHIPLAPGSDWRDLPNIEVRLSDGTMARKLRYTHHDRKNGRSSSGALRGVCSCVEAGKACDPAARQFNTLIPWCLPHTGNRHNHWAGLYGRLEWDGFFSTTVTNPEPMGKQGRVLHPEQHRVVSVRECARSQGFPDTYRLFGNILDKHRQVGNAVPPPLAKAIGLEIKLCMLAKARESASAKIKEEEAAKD
Sequence of human DNMT3a/3l (Q9Y6K1 whole entry, looked up): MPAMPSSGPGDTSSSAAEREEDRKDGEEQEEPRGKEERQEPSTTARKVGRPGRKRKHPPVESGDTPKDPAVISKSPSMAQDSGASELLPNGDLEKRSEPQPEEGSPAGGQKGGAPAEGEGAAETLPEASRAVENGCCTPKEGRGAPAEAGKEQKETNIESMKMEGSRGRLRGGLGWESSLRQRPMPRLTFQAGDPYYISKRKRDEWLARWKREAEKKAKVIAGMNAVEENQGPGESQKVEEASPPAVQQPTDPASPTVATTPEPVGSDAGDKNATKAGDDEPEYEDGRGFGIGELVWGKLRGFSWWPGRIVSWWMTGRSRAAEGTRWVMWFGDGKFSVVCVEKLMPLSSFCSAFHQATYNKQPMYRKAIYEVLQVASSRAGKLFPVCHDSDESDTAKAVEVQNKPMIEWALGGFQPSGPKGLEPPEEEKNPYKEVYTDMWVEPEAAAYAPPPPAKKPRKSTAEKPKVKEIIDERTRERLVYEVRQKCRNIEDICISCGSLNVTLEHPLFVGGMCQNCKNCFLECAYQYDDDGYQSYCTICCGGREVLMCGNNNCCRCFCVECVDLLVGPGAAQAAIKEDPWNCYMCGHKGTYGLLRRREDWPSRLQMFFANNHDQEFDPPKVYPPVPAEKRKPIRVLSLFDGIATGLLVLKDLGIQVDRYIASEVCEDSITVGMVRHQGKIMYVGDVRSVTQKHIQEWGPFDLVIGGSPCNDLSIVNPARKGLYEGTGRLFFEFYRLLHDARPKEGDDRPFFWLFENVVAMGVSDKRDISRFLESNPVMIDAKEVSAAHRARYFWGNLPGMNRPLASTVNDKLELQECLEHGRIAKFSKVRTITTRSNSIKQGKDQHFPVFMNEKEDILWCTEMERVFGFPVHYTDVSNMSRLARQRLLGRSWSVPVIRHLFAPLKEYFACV
Sequence of human DNMT3a/3l (Q9UJW3 whole entry partner, looked up): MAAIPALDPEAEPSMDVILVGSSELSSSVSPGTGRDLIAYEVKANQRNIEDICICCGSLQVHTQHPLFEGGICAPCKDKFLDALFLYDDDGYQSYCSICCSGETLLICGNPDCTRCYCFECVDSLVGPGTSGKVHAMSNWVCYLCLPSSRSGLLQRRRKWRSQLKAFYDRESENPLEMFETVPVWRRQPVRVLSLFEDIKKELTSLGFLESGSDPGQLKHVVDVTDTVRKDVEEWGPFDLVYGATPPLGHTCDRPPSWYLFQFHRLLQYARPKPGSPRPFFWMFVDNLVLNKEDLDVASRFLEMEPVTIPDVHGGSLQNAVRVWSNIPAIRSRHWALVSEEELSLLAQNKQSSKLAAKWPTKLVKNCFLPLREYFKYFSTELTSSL

SMILES	IC50 (DNMT1; [2]) [µM]	pIC50 (human DNMT3a/3l; [3])	pIC50 (DNMT3B; [4])	EC50 [1] [µM]	DNMT1 BioChemical (pIC50 category) (DNMT1; [5])	pIC50 (human DNMT3a/3l; [6])	pIC50 (DNMT3B; [7])	IC50 (DNMT1; [8]) [µM]	average pIC50 against DNMT1 (DNMT1; breaklight assay and/or SPA assay, repeated experimental runs)
CCc1c(C#N)c(SC(C(N)=O)c2ccccc2)nc(N2CCC(=O)CC2)c1C#N (stereo not shown) [Example 59, 2-((3,5-dicyano-4-ethyl-6-(4-oxopiperidin-1-yl)pyridin-2-yl)thio)-2-phenylacetamide]	0.316 to 1	< 3.30	< 3.30	0.316 to 1	–	–	–	–	–
CCc1c(C#N)c(SC(C(N)=O)c2ccccc2)nc(N2CCCN(CCOC)CC2)c1C#N (stereo not shown) [Example 106, 2-({3,5-Dicyano-4-ethyl-6-[4-(2-methoxyethyl)-1,4-diazepan-1-yl]pyridin-2-yl}sulfanyl)-2-phenylacetamide]	–	< 3.30	< 3.30	< 0.316	D (Category D: ≥6.5)	–	–	–	–
CCc1c(C#N)c(SC(C(N)=O)c2ccccc2)nc(N2CCCN(CC(C)O)CC2)c1C#N (stereo not shown) [Example 107, 2-((3,5-dicyano-4-ethyl-6-(4-(2-hydroxypropyl)-1,4-diazepan-1-yl)pyridin-2-yl)thio)-2-phenylacetamide]	–	< 3.30	< 3.30	< 0.316	D (Category D: ≥6.5)	–	–	–	–
CCc1c(C#N)c(SC(C(N)=O)c2ccccc2)nc(N2CCCNCC2)c1C#N (stereo not shown) [Example 112, 2-{[3,5-Dicyano-6-(1,4-diazepan-1-yl)-4-ethylpyridin-2-yl]sulfanyl}-2-phenylacetamide]	–	< 3.30	< 3.30	< 0.316	D (Category D: ≥6.5)	–	–	–	–
CCc1c(C#N)c(SC(C(N)=O)c2ccccc2)nc(N2CCC3(CCCN(C)C3)CC2)c1C#N (stereo not shown) [Example 118, 2-((3,5-Dicyano-4-ethyl-6-(2-methyl-2,9-diazaspiro[5.5]undecan-9-yl)pyridin-2-yl)thio)-2-phenylacetamide]	–	< 3.30	3.91	< 0.316	D (Category D: ≥6.5)	–	–	–	–
CCc1c(C#N)c(SC(C(N)=O)c2ccccc2)nc(N2CCN(C(C)=O)CC2)c1C#N (stereo not shown) [Example 126, 2-((6-(4-Acetylpiperazin-1-yl)-3,5-dicyano-4-ethylpyridin-2-yl)thio)-2-phenylacetamide]	0.316 to 1	< 3.30	< 3.30	< 0.316	–	–	–	0.316 to 1	–
CN(C)c1nc(SC(C(N)=O)c2ccccc2)c(C#N)c(C2CC2)c1C#N (stereo not shown) [Example 127, 2-((3,5-Dicyano-4-cyclopropyl-6-(dimethylamino)pyridin-2-yl)thio)-2-phenylacetamide]	–	< 3.30	< 3.30	0.316 to 1	D (Category D: ≥6.5)	–	–	–	–
CCc1c(C#N)c(SC(C(N)=O)c2ccc(Cl)cc2)nc(N(C)C)c1C#N (stereo not shown) [Example 128, 2-(4-Chlorophenyl)-2-((3,5-dicyano-6-(dimethylamino)-4-ethylpyridin-2-yl)thio)acetamide]	0.316 to 1	< 3.30	< 3.30	0.316 to 1	–	–	–	–	–
CCc1c(C#N)c(SC(C(N)=O)c2ccccc2)nc(N2CCN(CCO)CC2)c1C#N (stereo not shown) [Example 129, 2-((3,5-Dicyano-4-ethyl-6-(4-(2-hydroxyethyl)piperazin-1-yl)pyridin-2-yl)thio)-2-phenylacetamide]	0.316 to 1	< 3.30	< 3.30	1 to 31.6	–	–	–	≥ 1	–
CCc1c(C#N)c(SC(C(N)=O)c2ccccc2)nc(N2CCC(C)(N)CC2)c1C#N (stereo not shown) [Example 136, 2-((6-(4-Amino-4-methylpiperidin-1-yl)-3,5-dicyano-4-ethylpyridin-2-yl)thio)-2-phenylacetamide]	–	< 3.30	3.42	< 0.316	D (Category D: ≥6.5)	–	–	–	> 6.5

More lines, now with the values ahead:

IC50 (DNMT1; [2]) [µM]	pIC50 (human DNMT3a/3l; [3])	pIC50 (DNMT3B; [4])	EC50 [1] [µM]	DNMT1 BioChemical (pIC50 category) (DNMT1; [5])	pIC50 (human DNMT3a/3l; [6])	pIC50 (DNMT3B; [7])	IC50 (DNMT1; [8]) [µM]	average pIC50 against DNMT1 (DNMT1; breaklight assay and/or SPA assay, repeated experimental runs)	SMILES
1 to 31.6	3.38	< 3.30	> 31.6	–	–	–	–	–	CCc1c(C#N)c(N)nc(SC(C(N)=O)c2ccccc2)c1C#N (stereo not shown) [Example 1, 2-[(6-amino-3,5-dicyano-4-ethylpyridin-2-yl)sulfanyl]-2-phenylacetamide]
0.316 to 1	< 3.30	< 3.30	> 31.6	–	–	–	–	–	CCc1c(C#N)c(N)nc(S[C@@H](C(N)=O)c2ccccc2)c1C#N [Example 2, (R)-[(6-amino-3,5-dicyano-4-ethylpyridin-2-yl)sulfanyl]-2-phenylacetamide]
–	< 3.30	< 3.30	< 0.316	D (Category D: ≥6.5)	< 3.30	< 3.30	–	–	CCCN1CCCN(c2nc(SC(C(N)=O)c3ccccc3)c(C#N)c(CC)c2C#N)CC1 (stereo not shown) [Example 6, 2-((3,5-dicyano-4-ethyl-6-(4-propyl-1,4-diazepan-1-yl)pyridin-2-yl)thio)-2-phenylacetamide]
–	< 3.30	< 3.30	< 0.316	D (Category D: ≥6.5)	< 3.30	< 3.30	–	–	CCc1c(C#N)c(SC(C(N)=O)c2ccccc2)nc(N2CCCN(CC)CC2)c1C#N (stereo not shown) [Example 7, 2-{[3,5-dicyano-4-ethyl-6-(4-ethyl-1,4-diazepan-1-yl)pyridin-2-yl]sulfanyl}-2-phenylacetamide]
0.316 to 1	< 3.30	< 3.30	0.316 to 1	–	< 3.30	< 3.30	–	–	CCc1c(C#N)c(SC(C(N)=O)c2ccccc2)nc(N2CCC(N3CCNC3=O)CC2)c1C#N (stereo not shown) [Example 47, 2-((3,5-Dicyano-4-ethyl-6-(4-(2-oxoimidazolidin-1-yl)piperidin-1-yl)pyridin-2-yl)thio)-2-phenylacetamide]
–	< 3.30	< 3.30	0.316 to 1	D (Category D: ≥6.5)	–	–	–	–	CCc1c(C#N)c(SC(C(N)=O)c2ccccc2)nc(N2CC[C@H](O)C2)c1C#N (stereo partly drawn) [Example 49, 2-((3,5-Dicyano-4-ethyl-6-((S)-3-hydroxypyrrolidin-1-yl)pyridin-2-yl)thio)-2-phenylacetamide]
0.316 to 1	< 3.30	< 3.30	< 0.316	–	–	–	–	–	CCc1c(C#N)c(SC(C(N)=O)c2ccccc2)nc(N2CCNC(=O)C2)c1C#N (stereo not shown) [Example 50, 2-((3,5-Dicyano-4-ethyl-6-(3-oxopiperazin-1-yl)pyridin-2-yl)thio)-2-phenylacetamide]
0.316 to 1	< 3.30	< 3.30	> 31.6	–	–	–	–	–	N#Cc1c(N)nc(SC(C(N)=O)c2ccccc2)c(C#N)c1C1CC1 (stereo not shown) [Example 51, 2-[(6-amino-3,5-dicyano-4-cyclopropyl-2-pyridyl)sulfanyl]-2-phenyl-acetamide]
0.316 to 1	< 3.30	< 3.30	1 to 31.6	–	< 3.30	< 3.30	–	–	CCc1c(C#N)c(NC)nc(SC(C(N)=O)c2ccccc2)c1C#N (stereo not shown) [Example 52, 2-((3,5-Dicyano-4-ethyl-6-(methylamino)pyridin-2-yl)thio)-2-phenylacetamide]
1 to 31.6	< 3.30	< 3.30	1 to 31.6	–	–	–	–	–	CCc1c(C#N)c(SC(C(N)=O)c2ccccc2)nc(N(C)CCOC)c1C#N (stereo not shown) [Example 53, 2-((3,5-Dicyano-4-ethyl-6-((2-methoxyethyl)(methyl)amino)pyridin-2-yl)thio)-2-phenylacetamide]
